Laboratory results reported in ChEMBL document CHEMBL2169834, “Toward rational fragment-based lead design without 3D structures” (J Med Chem, 2012).
Calls of active or inactive are those of the source. No cut-off for these calls is given here.

How the values were obtained:
Galliformes = assay: Binding affinity to quail lipocalin Q83 by 1H-15N HSQC-based NMR analysis
[1] = Binding affinity to quail lipocalin Q83 assessed as second molecule binding at 2:1 compound:protein ratio by […]; set-up: species or system Galliformes
[2] = Binding affinity to quail lipocalin Q83 assessed as first molecule binding at 2:1 compound:protein ratio by […]; set-up: species or system Galliformes
[3] = molecular target: T1, Catenin beta-1 (Homo sapiens) (UniProt P35222); assay: Binding affinity to human beta-catenin at 1 mM by 1H-STD NMR analysis
T1 sequence (whole entry): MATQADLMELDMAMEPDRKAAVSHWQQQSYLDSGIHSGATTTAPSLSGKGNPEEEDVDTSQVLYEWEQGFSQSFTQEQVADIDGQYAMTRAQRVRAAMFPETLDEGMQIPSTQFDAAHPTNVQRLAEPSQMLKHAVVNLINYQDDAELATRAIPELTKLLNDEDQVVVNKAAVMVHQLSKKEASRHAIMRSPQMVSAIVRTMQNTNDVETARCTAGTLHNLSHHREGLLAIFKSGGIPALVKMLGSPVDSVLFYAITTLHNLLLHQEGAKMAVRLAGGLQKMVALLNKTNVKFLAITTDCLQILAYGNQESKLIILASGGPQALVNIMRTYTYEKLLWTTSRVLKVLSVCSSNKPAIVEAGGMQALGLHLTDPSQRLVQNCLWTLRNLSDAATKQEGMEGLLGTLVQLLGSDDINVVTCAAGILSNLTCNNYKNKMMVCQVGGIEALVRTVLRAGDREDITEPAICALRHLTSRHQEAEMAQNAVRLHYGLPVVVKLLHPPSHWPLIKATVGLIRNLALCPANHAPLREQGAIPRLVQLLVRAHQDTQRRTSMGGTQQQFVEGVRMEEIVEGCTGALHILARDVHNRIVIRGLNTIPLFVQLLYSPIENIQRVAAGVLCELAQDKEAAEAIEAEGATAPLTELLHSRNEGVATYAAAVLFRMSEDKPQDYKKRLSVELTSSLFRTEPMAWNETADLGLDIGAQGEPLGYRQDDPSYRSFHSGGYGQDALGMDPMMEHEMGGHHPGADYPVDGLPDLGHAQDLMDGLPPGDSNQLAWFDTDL

[4] = Binding affinity to quail lipocalin Q83 at 200 uM by tryptophan fluorescence quenching experiment; set-up: species or system Galliformes

| Activity (Galliformes) | Kd [1] | Kd [2] | Activity [3] | Kd [4] | SMILES |
| --- | --- | --- | --- | --- | --- |
| Active | 70000 µM | 500 µM |  |  | COc1cc(C(=O)O)ccc1O [VANILLIC ACID] |
|  |  |  | Active |  | O=C1OC2(c3ccc(O)cc3Oc3cc(O)ccc32)c2ccccc21 |
| Active |  |  |  | 25 µM | Nc1ccc(/N=N/c2ccc(S(=O)(=O)O)cc2)cc1S(=O)(=O)O |
|  |  |  | Active |  | Cc1c(Br)cc2c(-c3ccccc3C(=O)O)c3cc(Br)c(=O)c(Br)c-3oc2c1Br |
